Experimental data from US5968912A, “Methods for immunosuppressing” (Immune Modulation, Inc., priority 1997, dated 1999).
Where “and” joins values, the source holds several entries; their conditions need not be identical. Identical values can stand only once. Entries after “also recorded” stand apart in the source; their conditions may differ.

Experiments:
[1] = tested on: Human T-lymphocyte-mediated cytolysis (cytotoxic CD8+ T-cells); test: One-way MLR-generated T-lymphocyte-mediated cytolysis (CTL assay, 51Cr release); format: cell-based
[2] = tested on: IL-2; test: IL-2 production in PHA-stimulated PBMC cultures; format: cell-based, human; design: % Inhibition of IL-2 production: concentration or dose not given beside the values
Procedure: (§1) Production of autocrine growth factors (IL-2, IL-4, IL-10 and Interferon-gamma) in PHA-stimulated human PBMC cultures
(§2) Culture supernatants were collected at the times indicated and frozen at -20° C. At the end of 96 hr., all supernatants were assayed by enzyme immunoassay for the presence of the cytokines: interleukin-2, -4, -10 and interferon (IFN)-gamma. Results were expressed in pg/mL concentration of cytokine and % inhibition of cytokine production.

[3] = tested on: IL-10; test: IL-10 production in PHA-stimulated PBMC cultures; format: cell-based, human; design: % Inhibition of IL-10 production: concentration or dose not given beside the values
Procedure: as §1, §2

[4] = tested on: Interferon-gamma; test: Interferon-gamma production in PHA-stimulated PBMC cultures; format: cell-based, human; design: % Inhibition of IFN-γ production: concentration or dose not given beside the values
Procedure: as §1, §2

[5] = tested on: anti-CD3-induced T-cell proliferation (PBMC); test: Anti-CD3-induced T-cell proliferation; format: cell-based, human; conditions: anti-CD3 1 ng/mL
Procedure: Anti-T cell receptor (TCR)/CD3 induced T cell proliferation
PBMC of a healthy volunteer were cultured in 96-well microtiter plates at 2×10^5 cells/well. […] Cultures were incubated for 3 days at 37° C. in a 5% CO2 incubator. Proliferative response was determined by incorporation of ^3 H-thymidine.
Anti-CD3 mAb was used at 1 ng/mL concentration.

[6] = Single dose range-finding toxicity study in mice; format: in vivo, mouse (Swiss Webster); conditions: mouse, in vivo, single IV administration, mice
Procedure: Single dose range-finding study of HE-33 in mice
Swiss Webster mice (Charles River Laboratories, Hollister, Calif.) were used for the preliminary toxicology study. One mouse per dose level was administered a single intravenous (IV) dose of either 1.5, 15, 75, 100, 150, 200, 300 or 400 mg of HE-33/kg body weight. The dose volume for all mice receiving saline or formulations of HE-3 3 was 10 mL/kg body weight. All doses were administered as a slow-push IV injection in the tail vein. Day 1 of the study for each mouse occurred on the day of administration of the drug or the saline.
Clinical observations/body weights
Each mouse was observed closely for clinical signs of toxicity at approximately 10, 30 and 60 minutes and 5 hours after dosing on Day 1, and once daily on Days 2-8. In addition, mortality checks were performed twice daily. Body weights were obtained on each mouse prior to dosing on Day 1. Body weights (Day 1) for the mice used in this study ranged between 27.3 and 32.5 g (Table 8).
^a Animals were dosed with saline adjusted to pH 8.55.
^b Observations are recorded as present (x) or not observed (--).
^c Additional observation was reported in the time interval closest t
^d FPSR = Flattened posture with or without closed eyes; animal would
periodically have a startled response in response to or without a noise

[7] = tested on: NK cell activity (YAC-I cells as target); test: NK cell cytotoxicity assay, cells of pretreated donor mice; format: in vivo, mouse (C57BL/6); conditions: spleen, effector/target 100:1
Procedure: (§3) Elimination of endogenous and inducible NK cell activity from the cell donor mice (C57BL/6)
(§4) Six- to ten-week old C57BL/6 mice were treated for 24 hours orally or intravenously with HE-33. Orally-treated mice received 400 mg/kg twice a day (Bid), and intravenously treated mice received a single 100 mg/kg i.v.
NK Cell cytotoxicity assay: At the end of the 24 hour pre-treatment with HE-33, all treated mice and control, non-treated mice (i.e., mice treated with vehicle, PBS) were sacrificed by cervical dislocation. Spleens and lymph nodes were removed and single-cell suspension of pooled spleen and lymph nodes from mice in each group of donor were prepared in RPMI-1640 supplemented with 10% fetal bovine serum (FBS) and 1% penicillin/streptomycin. Target cells were ^51 Cr-labeled Moloney leukemia virus-induced lymphoma (YAC) tumor cells. Different effector:target cell ratios were cultured in triplicate samples in U-bottomed microtiter plates for 4 hours at 37° C. in a humidified atmosphere containing 5% CO2. The microtiter plates were then centrifuged, and 100-μL aliquots of supernatants were assayed for ^51 Cr release. Results were expressed as percent lysis and percent suppression of lysis. The method of Ojo-Amaize, E. et. al., Scand. Journal of Immunology, 1978, 7: 297-306, was used for the NK assays.

[8] = tested on: GVHD in (B6 x C3H)F1 mice; test: GVHD in (B6 x C3H)F1 recipients of cells from pretreated C57BL/6 donor mice; format: in vivo, mouse
Procedure: Generation of F1 Recipient Mice: Male mice of inbred strains, C57BL/6 (H-2^b haplotype) were mated with female mice of inbred strains, C3 H/j (H-2^k haplotype). The resulting hybrids (C57BL/6×C3 H/j)F1 were used as recipients of the B6 spleen cells.
as §3, §4
Irradiation of Recipient (B6 ×C3 H)F1 Mice: Ten- to twelve- week old (B6 ×C3 H)F1 mice were sublethally irradiated with a Cobalt-60 gamma source at 450 rads in a single dose.
Induction of GVHD: GVHD was induced in irradiated (B6 ×C3 H)F1 mice by the intravenous injection of 5×10^7 donor B6 (H-2^b) spleen and lymph node cells.

## CCCN(CCC)c1ncnc2c1ncn2[C@@H]1O[C@@H]2COP(=O)(O)O[C@H]2[C@H]1O [HE-33, N^6,N^6 -di-n-Propyl-c-AMP]
[1]; 100 μM, E:T 25:1
  % Specific Lysis: 4%
[1]; Homo sapiens, T-cell, E:T 25:1, read-out: % Inhibition of lysis
  inhibition at 100 µM: 80%
[2]; 24 hours
  % Inhibition of IL-2 production: 0%
  IL-2 production: 418 pg/mL
[2]; 48 hours
  % Inhibition of IL-2 production: 76%
  IL-2 production: 148 pg/mL
[2]; 72 hours
  % Inhibition of IL-2 production: 70%
  IL-2 production: 51 pg/mL
[2]; 96 hours
  % Inhibition of IL-2 production: 0%
  IL-2 production: 48 pg/mL
[3]; 24 hours
  % Inhibition of IL-10 production: 21%
  IL-10 production: 441 pg/mL
[3]; 48 hours
  % Inhibition of IL-10 production: 0%
  IL-10 production: 1304 pg/mL
[3]; 72 hours
  % Inhibition of IL-10 production: 0%
  IL-10 production: 790 pg/mL
[3]; 96 hours
  % Inhibition of IL-10 production: 0%
  IL-10 production: 991 pg/mL
[4]; 24 hours
  % Inhibition of IFN-γ production: 0%
  IFN-γ production: 980 pg/mL
[4]; 48 hours
  % Inhibition of IFN-γ production: 9%
  IFN-γ production: 6146 pg/mL
[4]; 72 hours
  % Inhibition of IFN-γ production: 0%
  IFN-γ production: 5390 pg/mL
[4]; 96 hours
  % Inhibition of IFN-γ production: 0%
  IFN-γ production: 6105 pg/mL
[5]; 10 μM
  Proliferation: 289 CPM
[5]; 100 μM
  Proliferation: 43 CPM
[5]; Homo sapiens, T-cell, 10 μM
  inhibition at 10 µM: 77%
[5]; Homo sapiens, T-cell, 100 μM
  inhibition at 100 µM: 97%
[6]
  No-effect level (NOEL): 100 mg/kg
[6]; read-out: maximum tolerated dose (MTD)
  MTD: ≥ 400 mg/kg
[7]; 100 mg/kg IV
  Percent Lysis (NK cell activity): 14%
[7]; 400 mg/kg (Bid) oral
  Percent Lysis (NK cell activity): 5%
  Percent Suppression of NK cell activity: ~80% and 76%
[8]; FIG. 2
  Mean survival time (MST) of the mice that died: 46 days
[8]; by 55 days post cell transfer, FIG. 2
  Recipients that had died: 30%
[8]; by day 30 post cell transfer, FIG. 2, P<0.0000001
  Recipients that had died: none
[8]; day 33 post cell transfer, FIG. 3
  Recipients that had died: 50%
[8]; oral versus intravenous
  Prevention of GVHD by route of administration, in words: the oral route was better than the i.v. route; also recorded: Both the oral and intravenous routes of administration of HE-33 were effective in preventing GVHD
